Assay results: US5225530A, “Polypeptide useful for the preparation of antimalarial vaccines and of diagnostic kits for the detection of malarial affections” (priority 1986, dated 1993)

System: sporozoites of P. falciparum
Experiment: Inhibition of penetration of sporozoites into human hepatocytes
Type: cell-based
Details: sera of immunized C57BL/6 mice; 1:5 solution of sample; human hepatoma cells
Procedure: Human hepatoma cells were seeded at a concentration of 10^5 cells/chamber in Lab.-Tek plastic chambers (Miles) and cultivated for 24-48 hours
Then, to each chamber 25 μl was charged of a suspension containing 5-10^4 sporozoites of P. falciparum and 25 μl of a 1:5 solution of the sample under test.
The sporozoites were obtained from salivary glands of Anopheles stephensi infected with P. falciparum.
Two and six days later, the number of infected hepatocytes was determined by immunofluorescence by using monoclonal anti-P. falciparum CS protein antibodies.

## (Asn--Ala--Asn--Pro)40 [(NANP)40]
  inhibition of the penetration of the sporozoites of P. falciparum into the hepatic cells: < 86%
